Assays:
Format in all cases: functional, Homo sapiens
Set-up in all cases: dose or concentration left out as unconfirmed
[1] = system: Colon cancer organoid; assay: Identification of compartment-specific drug sensitivities in O06 CRC organoid-stroma F06 CAF co-cultures. Organoid is transduced with Lucferase2-P2A-EGFP lentivirus, fibroblast with Renilla-dsRed lentivirus. Dual-Glo Luciferase assay is used to report viability data.
[2] = system: Colon cancer organoid; assay: Identification of compartment-specific drug sensitivities in O14 CRC organoid-stroma F14 CAF co-cultures. Organoid is transduced with Lucferase2-P2A-EGFP lentivirus, fibroblast with Renilla-dsRed lentivirus. Dual-Glo Luciferase assay is used to report viability data.
[3] = system: Colon cancer organoid; assay: Identification of compartment-specific drug sensitivities in O20 CRC organoid-stroma F20 CAF co-cultures. Organoid is transduced with Lucferase2-P2A-EGFP lentivirus, fibroblast with Renilla-dsRed lentivirus. Dual-Glo Luciferase assay is used to report viability data.
[4] = Transduced with Lucferase2-P2A-EGFP lentivirus
[5] = Transduced with Renilla-dsRed lentivirus

| Structure (SMILES) | Cell Viability [1, 4] [%] | Cell Viability [1, 5] [%] | Cell Viability [2, 4] [%] | Cell Viability [2, 5] [%] | Cell Viability [3, 4] [%] | Cell Viability [3, 5] [%] |
| --- | --- | --- | --- | --- | --- | --- |
| COc1cc(C(=O)O)ncc1C#Cc1ccccc1NS(=O)(=O)c1cccc2c(N(C)C)ccnc12 [MSC-0516] | 46.2412 | 64.6541 | 102.238 | 113.463 | 90.203 | 109.372 |
| FC(F)(F)c1ccc2c(c1)nc(-c1cccnc1)n2C1CC1 [MSD-CYP11B2-Negative-control] | 103.115 | 83.1787 | 73.196 | 81.5774 | 98.4614 | 114.7 |
| CC(C)(O)c1cncc(-c2nc3ccc(F)cc3n2C2CC2)c1 [MSD-CYP11B2] | 83.611 | 134.058 | 89.9575 | 101.392 | 80.182 | 128.543 |
| N#CC1(c2ccccn2)CCN(Cc2cc(C(=O)N3CCCC3)c(=O)n3ccccc23)CC1 [MSD-M1PAM-NC] | 85.4848 | 72.6928 | 93.1425 | 88.6945 | 103.159 | 109.338 |
| N#CC1(c2ccccn2)CCN(Cc2cc(C(=O)O)c(=O)n3ccccc23)CC1 [MSD-M1PAM] | 12.088 | 188.309 | 84.139 | 110.281 | 53.4383 | 117.537 |
| CC(=O)Nc1c(C(C)=O)c(=O)n(C)c2nc(-c3ccc(Cl)cc3Cl)c(-c3ccc(Cl)cc3)cc12 [NAPHTHYRIDINONE] | 72.6588 | 141.036 | 155.496 | 107.032 | 105.882 | 98.6055 |
| CO[C@@H](C)c1c(Nc2ccc([C@@H](N(C)C(=O)C3CCS(=O)(=O)CC3)C(F)(F)F)cc2)cnc2cc(Cl)nn12 [NVS-MALT1-C] | 50.6957 | 73.6522 | 71.9282 | 88.3744 | 83.7008 | 108.215 |
| CO[C@@H](C)c1c(Nc2ccc([C@H](N(C)C(=O)C3CCS(=O)(=O)CC3)C(F)(F)F)cc2)cnc2cc(Cl)nn12 [NVS-MALT1] | 54.3511 | 83.5282 | 78.8073 | 82.3583 | 88.0389 | 98.697 |
| COc1ncc(-c2ccc3nccc(-c4ccnnc4)c3c2)cc1NS(=O)(=O)c1ccc(F)cc1F [OMIPALISIB] | 2.362 | 34.7423 | 6.452 | 40.6761 | 2.282 | 94.8256 |
| CN1CCN(c2ccc(OC(F)(F)F)c(Nc3ncc4c(n3)-c3c(c(C(N)=O)nn3CCO)CC4)c2)CC1 [ONVANSERTIB] | 2.834 | 160.245 | 2.108 | 79.1847 | 1.999 | 184.086 |
| Nc1nc(NCc2ccccc2)nc(-c2ccccc2CO)n1 [Ogerin] | 100.001 | 107.856 | 107.532 | 92.7829 | 81.1547 | 98.0569 |
| CC(=O)NCC(=O)N1[C@@H]2CC[C@H]1c1ccc(Nc3ncc(C(F)(F)F)c(NC4CCC4)n3)cc12 [PF-03814735] | 12.0789 | 82.3636 | 7.804 | 45.5161 | 4.585 | 155.761 |
| OCCn1cc(-c2cnc3nnn(Cc4ccc5ncccc5c4)c3n2)cn1 [PF-04217903] | 88.0795 | 107.387 | 55.9796 | 102.526 | 122.103 | 97.2338 |
| C[C@H](c1ccc(F)cc1)N(Cc1cccc(C(=O)O)c1)C(=O)c1cnc2ccccc2c1 [PF-05105679] | 130.848 | 113.872 | 130.3 | 106.537 | 143.937 | 111.508 |
| C[C@H](c1ccc(F)cc1)N(Cc1ccc(Cl)c(C(=O)O)c1)C(=O)c1cnc2ccccc2c1 [PF-05257137] | 94.0157 | 76.638 | 108.547 | 109.197 | 147.232 | 103.742 |

From ChEMBL document CHEMBL5608141, “Identification of compartment-specific drug sensitivities in CRC organoid-stroma co-cultures” (2024)
